Data on 2 compounds can be found in paper PMC12720774, “Detergents alter the stability and lipid binding properties of the CD1d immunoreceptor” (Protein Science : A Publication of the Protein Society, 2025).

“And” between values parts separate entries of the source, which are not always exact repeats. Equal entries are not always repeated. Where two headings read alike, the source gives them in different places.

The target in data set [1] is T1, AF647‐labeled hCD1d (Homo sapiens, UniProt P15813+P61769).
T1 construct: TEV protease cleavage site ENLYFQS (C); BirA biotinylation site (C); His7 (C); made in house; host or cells: TurboCHO cells (GenScript)
Briefly: Microscale thermophoresis (MST) binding assay. The text has this: (§1) The experimental limitations of ITF, such as low instrument sensitivity, high sample consumption, signal overlap with some ligands, and low throughput (Fossum et al., [2023]), made it necessary to employ alternative, complementary assays to quantify detergent binding to hCD1d. […] MST measures the diffusion of fluorescent molecules in response to microscopic temperature gradients (Seidel et al., [2013]). When a protein forms a complex with a ligand, changes in hydrodynamic properties, charge, or solvation energy alter its thermophoretic behavior, allowing detection of binding events. To perform MST experiments, Alexa Fluor 647 (AF647) dye was covalently attached to the primary amines of hCD1d via standard N‐hydroxysuccinimide coupling chemistry (Anderson et al., [1964]). The concentration of AF647‐hCD1d was kept constant, and the change in MST signal was measured as a function of increasing detergent concentration (Figure S3). Like ITF, any lipid or detergent that destabilizes CD1 can also alter the MST signal since unfolding changes the protein's Stokes radius and its thermophoretic behavior. […] This is why we compare MST results with ITF and nanoDSF, as described below.
(§2) For MST, hCD1d was fluorescently labeled with AF647‐NHS Ester (Invitrogen #A20006). Briefly, a 10 mM stock of AF647‐NHS was prepared in anhydrous DMSO. Then, 100 μL of 50 μM hCD1d in 1X PBS pH 7.4 was mixed with 1 μL of 10 mM AF647‐NHS (1:2 molar ratio of protein: dye). The mixture was allowed to react for 1 h in the dark at 25°C. Unreacted dye was removed from the protein–dye conjugate by performing size exclusion chromatography in the dark with a Superdex 200 Increase 10/300 GL column at a flow rate of 0.5 mL/min in SEC buffer (100 mM NaCl, 20 mM sodium phosphate, pH 7.2). The degree of labeling was determined by a NanoDrop spectrophotometer at A647 nm (dye absorbance) and A280 nm (hCD1d absorbance). The degree of labeling was determined from the ratio of dye concentration to protein concentration. The degree of labeling was ~75%.
(§3) MST experiments were performed using a Monolith NT.115 instrument (NanoTemper Technologies) using Monolith standard capillaries and the red excitation laser setup. The following settings were applied for all MST experiments: excitation power: 30%–50%, MST power: medium, before MST time: 3 s, MST on time (IR laser): 20 seconds, and after MST time: 1 s. MST measurements were analyzed using the Monolith Affinity Analysis software v2.3 and exported for plotting in GraphPad Prism v10.1. Three replicates were performed, and data are presented as the mean ± standard deviation (n = 3).
(§4) MST measurements of 100 nM AF647‐hCD1d were acquired in the absence and presence of detergents in 1X PBS pH 7.4 at 25°C. Prior to data acquisition, hCD1d and detergent or lipid samples were incubated at 37°C overnight (~12 h) to simulate in vitro and in vivo loading conditions. […] For 18:1 LPC experiments: MST data of 100 nM AF647‐hCD1d were acquired in the absence and presence of 18:1 LPC in 1X PBS pH 7.4 at 25°C.
(In MST a laser heats a spot of the sample, and binding alters the fluorescence response.)

The conditions of data set [2]: approximate; ref Sigma Aldrich catalogue; cited from earlier work.
The test system of the next data set is CD1d. Details: method as in Paletta et al., 2015. The settings on record: ref Paletta et al., 2015; cited from earlier work.
Data set [3] deals with T2, AF647‐labeled hCD1d (Homo sapiens, UniProt P15813).
T2 construct: TEV protease cleavage site ENLYFQS (C); BirA biotinylation site (C); His7 (C); made in house; host or cells: TurboCHO cells (GenScript)
Briefly: Microscale thermophoresis (MST) binding assay. The settings on record: α‐GalCer titration with 0.05% Tween 20; estimated; read-out: K D (MST) of lipid.
Excerpt: as §1, §2, §3, §4

Data set [4] can be described thus: Lipid solubility on resuspension in buffer. The format is physicochemical. The settings on record: 1X PBS pH 7.4 with or without detergent. The text has this:
Detergents were resuspended to desired stock concentrations in 1X PBS pH 7.4 using sonication/heating. The following lipids were purchased: 1‐oleoyl‐2‐hydroxy‐sn‐glycero‐3‐phosphocholine (18:1 LPC, Avanti Research #845875) and α‐galactosyl ceramide (α‐GalCer, Avanti Research #867000).

Data set [5] deals with T3, hCD1d (Homo sapiens, UniProt P15813+P61769). Details: method as in Cantu et al., 2003; Naidenko et al., 1999. As to conditions: previously estimated, in the presence of detergent; ref Cantu et al., 2003; Naidenko et al., 1999; read-out: binding affinity to hCD1d; cited from earlier work.
In data set [6] the target is T3, hCD1d. Description: Nano differential scanning fluorimetry (nanoDSF) thermal stability. The format is binding. Details: TEV protease cleavage site ENLYFQS (C); BirA biotinylation site (C); His7 (C); made in house; host or cells: TurboCHO cells (GenScript). As to conditions: absence vs presence of 50 μM α‐GalCer; with 0.05% Tween 20. The text has this:
We next sought to probe the ability of each detergent to influence the thermal stability of hCD1d. NanoDSF has been previously applied to measure lipid/detergent‐induced thermal stability changes in target proteins (Cecchetti et al., [2021]; Kotov et al., [2019]), but has not yet been applied to ligand binding to CD1. NanoDSF measures the ITF ratio (F 350 nm/F 330 nm) of proteins as a function of temperature to extract thermodynamic parameters. Given that ligand binding typically shifts the melting temperature of proteins, the effect of a ligand on protein stability can be approximated with the ΔT m value (the difference in T m with and without excess ligand) (Cecchetti et al., [2021]; Kotov et al., [2019]). We found all detergents tested to destabilize hCD1d, albeit to different degrees, with ΔT m values ranging from −0.8 to −14.2°C (Figures 4, S4, and Table 1).
Nano differential scanning fluorometry (nanoDSF) was performed using a Prometheus NT.48 (NanoTemper Technologies). Purified hCD1d at 1 μM in 1X PBS pH 7.4 was loaded into nanoDSF grade standard capillaries (NanoTemper Technologies) and exposed to temperatures ranging from 20 to 95°C with a thermal ramping rate of 1°C/min. Excitation power was set to 50%. The ratio of intrinsic fluorescence emission (F 350 nm/F 330 nm) was monitored. Melting temperatures (T m) were obtained from fitting the first derivative plots in the Prometheus NT.48 Software. The experiments were performed in triplicate, and data are presented as the mean ± standard deviation (n = 3).
For experiments with most detergents, prior to data acquisition, hCD1d and detergent or lipid samples were incubated at 37°C overnight (~12 h) to simulate in vitro and in vivo loading conditions. […] For 18:1 LPC experiments: nanoDSF spectra were acquired in the absence and presence of 18:1 LPC in 1X PBS pH 7.4 at 25°C.
For orientation: DSF heats the sample and reads unfolding from a dye or from intrinsic fluorescence.

T1 sequence (P61769+P15813 fused): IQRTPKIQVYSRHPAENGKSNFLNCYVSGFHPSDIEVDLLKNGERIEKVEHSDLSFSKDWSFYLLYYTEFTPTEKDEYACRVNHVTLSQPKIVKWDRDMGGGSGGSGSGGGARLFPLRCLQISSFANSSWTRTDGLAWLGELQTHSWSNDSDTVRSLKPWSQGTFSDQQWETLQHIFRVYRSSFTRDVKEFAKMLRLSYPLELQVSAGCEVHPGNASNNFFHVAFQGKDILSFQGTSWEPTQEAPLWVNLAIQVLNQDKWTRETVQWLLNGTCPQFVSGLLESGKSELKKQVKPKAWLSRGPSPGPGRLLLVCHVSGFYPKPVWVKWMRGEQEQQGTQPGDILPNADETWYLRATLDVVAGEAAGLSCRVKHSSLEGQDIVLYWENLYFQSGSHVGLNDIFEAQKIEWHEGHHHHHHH
T3 sequence (P61769+P15813 fused): as above
T2 sequence (P15813 whole entry, looked up): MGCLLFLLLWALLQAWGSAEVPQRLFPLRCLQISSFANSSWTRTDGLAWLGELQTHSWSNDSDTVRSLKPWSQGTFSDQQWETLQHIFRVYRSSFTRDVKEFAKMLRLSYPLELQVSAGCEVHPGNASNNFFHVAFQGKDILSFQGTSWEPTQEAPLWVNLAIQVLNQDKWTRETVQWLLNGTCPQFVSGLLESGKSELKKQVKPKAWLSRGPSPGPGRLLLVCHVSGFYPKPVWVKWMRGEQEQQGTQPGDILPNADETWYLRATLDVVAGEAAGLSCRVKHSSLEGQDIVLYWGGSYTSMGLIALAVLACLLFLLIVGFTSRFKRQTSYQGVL

For Tyloxapol, the “Fnorm (rep 1-3)” value on AF647‐labeled hCD1d [1] (3.05176e-8 M detergent) is 791.032 ‰ and 791.82 ‰ and 793.917 ‰; at AF647‐labeled hCD1d [1] (6.10352e-8 M detergent) it was 788.237 ‰ and 790.225 ‰ and 792.188 ‰; on AF647‐labeled hCD1d [1] (1.2207e-7 M detergent), 789.186 ‰ and 789.645 ‰ and 792.672 ‰; at AF647‐labeled hCD1d [1] (2.44141e-7 M detergent) it was 789.349 ‰ and 791.297 ‰ and 791.601 ‰; on AF647‐labeled hCD1d [1] (4.88281e-7 M detergent) it was 793.87 ‰ and 796.123 ‰ and 800.037 ‰; at AF647‐labeled hCD1d [1] (9.76563e-7 M detergent), 794.535 ‰ and 800.785 ‰ and 799.868 ‰. Further, the “Fnorm (rep 1-3)” value on AF647‐labeled hCD1d [1] (1.95313e-6 M detergent) is 799.667 ‰ and 802.675 ‰ and 807.47 ‰; on AF647‐labeled hCD1d [1] (3.90625e-6 M detergent), 800.165 ‰ and 807.424 ‰ and 808.195 ‰; on AF647‐labeled hCD1d [1] (7.8125e-6 M detergent), 803.847 ‰ and 808.251 ‰ and 810.421 ‰; on AF647‐labeled hCD1d [1] (1.5625e-5 M detergent), 804.661 ‰ and 807.958 ‰ and 808.866 ‰; at AF647‐labeled hCD1d [1] (3.125e-5 M detergent), 803.048 ‰ and 809.197 ‰ and 809.196 ‰; at AF647‐labeled hCD1d [1] (6.25e-5 M detergent), 803.488 ‰ and 807.296 ‰ and 810.346 ‰. In addition, the “Fnorm (rep 1-3)” value is 802.129 ‰ and 807.585 ‰ and 809.032 ‰ on AF647‐labeled hCD1d [1] (0.000125 M detergent); 803.446 ‰ and 808.163 ‰ and 808.584 ‰ on AF647‐labeled hCD1d [1] (0.00025 M detergent); 803.236 ‰ and 807.226 ‰ and 808.719 ‰ at AF647‐labeled hCD1d [1] (0.0005 M detergent); 804.928 ‰ and 807.69 ‰ and 809.093 ‰ at AF647‐labeled hCD1d [1] (0.001 M detergent, 100 nM AF647‐hCD1d). Besides, the Kd on AF647‐labeled hCD1d [1] (Figure 5B, detergent binding to hCD1d, read-out: MST - Kd (uM) average) turned out to be 0.96 µM; at AF647‐labeled hCD1d [1] (detergent with 100 nM AF647‐labeled hCD1d, 25°C, apparent, read-out: K D (MST)) it was 0.9 ± 0.2 µM. Further, the CMC in data set [2] was 18 µM. In the data set with CD1d, the “efficiency of loading α‐GalCer analogues onto CD1d (in words)” value was “more efficient than Tween 20 and Triton X‐100”.

As to `CCCCCCCCCCCCCCCCCCCCCCCCCC(=O)N[C@@H](CO[C@H]1O[C@H](CO)[C@H](O)[C@H](O)[C@H]1O)[C@H](O)[C@H](O)CCCCCCCCCCCCCC` [α‐GalCer, α‐galactosyl ceramide], the figures for the Kd on AF647‐labeled hCD1d [3] and at hCD1d [5] were 6600 ± 4100 nM and 100 to 500 nM, respectively. In addition, the “solubility (in words)” value in data set [4] is on record as “only soluble in the presence of Tween 20”. In addition, the “ΔT m (nanoDSF) of lipid” value on hCD1d [6] is “+13.7 ± 0.2 °C”.
